From patent publication US9187496B2 (priority 2009, dated 2015)
Read-outs that look alike come from different tables or passages of the source.

Key:
[1] = system: HCV genotype 2a-specific NS5A gene within the 1b-replicon; experiment: Luciferase replicon assay, NS5A-intergenotypic stable cell line genotype 2a; format: cell-based; conditions: Hepatitis C virus, read-out: EC50 2a
Excerpt: (§1) The nucleotide sequences of the NS5A region of genotype 2a (GenBank Accession #AB047639), genotype 3a (GenBank Accession #D17763), and genotype 4a (GenBank Accession#DQ418788) were synthesized by an outside vendor. The NS5A region of each of these genotypes included the first 11 amino acids of the protease recognition sequence of genotype 1b, as well as the last 10 amino acids of genotype 1b. The NS5A gene cassettes were excised with site specific restriction endonucleases and ligated into a ZS11-luciferase genotype 1b backbone (backbone contains the genotype 1b NS3 protease, NS4a, NS4b, and NS5b coding regions) with similarly cut restriction enzyme sites. Thus, the newly constructed plasmid contains a genotype 2a-, 3a- or 4a-specific NS5A gene within the 1b-replicon.
(§2) These new intergenotypic plasmids were used to establish stable cell lines. RNA was generated from the NS5A intergenotypic plasmids and used in conjunction with a lipofectin reagent to transfect a cured Huh7 cell line. Transfected cells were selected for with G418. After selection has occurred the stable cell lines were propagated, tested for luciferase activity, and RT-PCR with genotype specific primers (either 1a, 2a, 3a, or 4a). Stable cell lines containing the intergenotypic replicon were then fully sequenced and analysed for proper expression of NS3, NS5A and NS5B proteins.
(§3) Drug titration analysis was performed using the luciferase replicon assay described herein.
(§4) The HCV luciferase replicon assay measures the ability of a test compound to inhibit HCV replication in cell culture after 3 days of treatment in a human hepatoma cell line (Huh-7) bearing a HCV replicon containing a luciferase-neomycin phosphotransferase fusion gene. The inhibition of HCV replication was measured by quantification of luciferase protein expression. Briefly, Huh-7 cells containing either the HCV genotype 1a H77 strain or genotype 1b Conl strain subgenomic luciferase replicon (H1a-luc or Zluc, respectively) were grown in DMEM containing glucose, L-glutamine and sodium pyruvate, 10% fetal bovine serum (FBS), 100 IU/mL penicillin, 100 μg/mL streptomycin, 2 mM GlutaMAX, non-essential amino acids and 0.25 (H1a-luc) or 0.5 (Zluc) mg/mL G418. GlutaMAX was obtained from Invitrogen, Corp.; all other media reagents were obtained from Mediatech, Inc. For dose-response testing, the cells were seeded in 96-well plates at 1×10^4 (H1a-luc) or 7.5×10^3 (Zluc) cells/well in a volume of 50 μL, and incubated at 37° C./5% CO2. Three hours after plating, 50 μL of ten 5-fold serial dilutions of compound were added, and cell cultures were incubated at 37° C./5% CO2 for 72 hours. In all cases, Huh-7 cells lacking the HCV replicon served as negative control. To assess luciferase expression, the media/compound was removed from the plates and ONE-glo Luciferase assay reagent (Promega) was added to each well. The assay plates were shaken for 3 minutes at room temperature and luciferase activity for each well was measured with a 1 sec read time on the Victor^3V multilabel counter using a 700 nm cut-off filter (Perkin Elmer). EC50 values were calculated from dose response curves from the resulting best-fit equations determined by Microsoft Excel and XLfit 4.1 software.

[2] = system: HCV genotype 1a H77 strain (H1a-luc replicon / 1a-H77NS5a intergenotypic replicon); experiment: Luciferase replicon assay, genotype 1a; format: cell-based
Excerpt: To generate the 1a-H77NS5a intergenotypic plasmid, dual cut sites were inserted into the ZS11-luciferase genotype 1b backbone that would bracket the NS5a region almost in its entirety. Using PCR and 1a-H77 specific primers also containing the corresponding restriction enzyme sites, the NS5a gene was amplified from the 1a-H77 replicon. The ZS11-luciferase genotype 1b backbone and the genotype 1a NS5a PCR products were restriction enzyme digested and then ligated using standard molecular cloning techniques. The newly constructed plasmid contains the genotype 1a-specific NS5a gene where as the backbone remains 1b as described herein.
as §2, §3, §4

[3] = system: HCV genotype 4a-specific NS5A gene within the 1b-replicon; experiment: Luciferase replicon assay, NS5A-intergenotypic stable cell line genotype 4a; format: cell-based; conditions: Hepatitis C virus, read-out: EC50 4a
Excerpt: as §1, §2, §3, §4

[4] = Cytotoxicity evaluation in luciferase replicon cells (Cell Titer 96 AQueous One); format: cell-based, human; conditions: human; Table 1B, cellular viability
Protocol: For cytotoxicity evaluation, H1a-luc or Zluc cells were treated with compounds as described above and cellular viability was monitored using the Cell Titer 96 AQueous One Solution Cell Proliferation Assay (Promega). Plates were then read at 490 nm in a Victor^3V 1420 multilabel counter (Perkin Elmer) and CC50 concentrations were determined using Microsoft Excel and XLfit 4.1 software.

[5] = system: HCV genotype 1b Conl strain subgenomic luciferase replicon (Zluc); experiment: Luciferase replicon assay, genotype 1b; format: cell-based; conditions: Hepatitis C virus, 72 h, read-out: EC50 1b
Protocol: as §4

[6] = system: HCV genotype 3a-specific NS5A gene within the 1b-replicon; experiment: Luciferase replicon assay, NS5A-intergenotypic stable cell line genotype 3a; format: cell-based; conditions: Hepatitis C virus, read-out: EC50 3a
Excerpt: as §1, §2, §3, §4

[7] = system: Huh-7 cells containing HCV Con1 subgenomic replicon (GS4.1 cells); experiment: HCV replicon assay (NS5A ELISA); format: cell-based; conditions: Hepatitis C virus, Huh-7; GS4.1 cells, 72 hrs, NS5A ELISA; read-out: EC50
Protocol: General Procedure: Huh-7 cells containing HCV Con1 subgenomic replicon (GS4.1 cells) were grown in Dulbecco's Modified Eagle Medium (DMEM) supplemented with 10% fetal bovine serum (FBS), 2 mM L-glutamine, 110 mg/L sodium pyruvate, 1× non-essential amino acids, 100 U/mL penicillin-streptomycin, and 0.5 mg/mL G418 (Invitrogen). For dose-response testing, the cells were seeded in 96-well plates at 7.5×10^3 cells/well in a volume of 50 μL, and incubated at 37° C./5% CO2. Three hours after plating, 50 μL of ten 2-fold serial dilutions of compounds (highest concentration, 75 μM) were added, and cell cultures were incubated at 37° C./5% CO2 in the presence of 0.5% DMSO. Alternatively, compounds were tested at a single concentration of 15 μM. In all cases, Huh-7 cells lacking the HCV replicon served as negative control. The cells were incubated in the presence of compounds for 72 hrs after which they were monitored for expression of the NS5A protein by enzyme-linked immunosorbent assay (ELISA). For this, the plates were then fixed for 1 min with acetone/methanol (1:1, v/v), washed twice with phosphate-buffered saline (PBS), 0.1% Tween 20, blocked for 1 hr at room temperature with TNE buffer containing 10% FBS and then incubated for 2 hr at 37° C. with the anti-NS5A mouse monoclonal antibody A-236 (ViroGen) diluted in the same buffer. After washing three times with PBS, 0.1% Tween 20, the cells were incubated 1 hr at 37° C. with anti-mouse immunoglobulin G-peroxidase conjugate in TNE, 10% FBS. After washing as described above, the reaction was developed with O-phenylenediamine (Zymed). The reaction was stopped after 30 min with 2 N H2SO4, and absorbance was read at 492 nm using Sunrise Tecan spectrophotometer. EC50 values were determined from the % inhibition versus concentration data using a sigmoidal non-linear regression analysis based on four parameters with Tecan Magellan software.

GS4.1 cells = experiment: Cytotoxicity evaluation in GS4.1 cells (Cell Titer 96 AQueous One); format: cell-based, human; conditions: cellular viability
Protocol: For cytotoxicity evaluation, GS4.1 cells were treated with compounds as described above and cellular viability was monitored using the Cell Titer 96 AQueous One Solution Cell Proliferation Assay (Promega). CC50 values were determined from the % cytotoxicity versus concentration data with Tecan Magellan software as described above.

[8] = Hepatitis C virus, read-out: EC50 1a, genotype 1a

COC(=O)N[C@H](C(=O)N1CCC[C@H]1c1ncc(-c2ccc(-c3cc4sc(-c5ccc6[nH]c([C@@H]7CCCN7C(=O)[C@H](NC(=O)OC)c7ccccc7)nc6c5)cc4s3)cc2)[nH]1)C(C)C [Compound A194, [(S)-1-((S)-2-{4-[4-(5-{(S)-2-[1-((R)-2-methoxycarbonylamino-2-phenyl-acetyl)-pyrrolidin-2-yl]-3H-benzoimidazol-5-yl}-thieno[3,2-b]thiophen-2-yl)-phenyl]-1H-imidazol-2-yl}-pyrrolidine-1-carbonyl)-2-methyl-propyl]-carbamic acid methyl ester]
EC50 [1]: 1 to 10 nM | EC50 [2, 8]: 0.1 to 1 nM | EC50 [3]: < 0.1 nM | CC50 at 72 h [4]: > 75000 nM | EC50 [5]: < 0.1 nM | EC50 [6]: 0.1 to 1 nM

COC(=O)N[C@H](C(=O)N1CCC[C@H]1c1ncc(-c2ccc(-c3csc4c(-c5cnc([C@@H]6CCCN6C(=O)[C@H](NC(=O)OC(C)(C)C)c6ccccc6)[nH]5)csc34)cc2)[nH]1)C(C)C [Compound A111, [(S)-1-((S)-2-{4-[4-(6-{(S)-2-[1-((R)-2-tert-butoxycarbonylamino-2-phenyl-acetyl)-pyrrolidin-2-yl]-3H-imidazol-4-yl}-thieno[3,2-b]thiophen-3-yl)-phenyl]-1H-imidazol-2-yl}-pyrrolidine-1-carbonyl)-2-methyl-propyl]-carbamic acid methyl ester]
EC50 [1]: < 0.1 nM | EC50 [3]: < 0.1 nM | CC50 at 72 h [4]: > 75000 nM | EC50 [5]: < 0.1 nM | EC50 [7]: < 1 nM | EC50 [6]: < 0.1 nM | CC50 (GS4.1 cells): > 75000 nM

COC(=O)N[C@H](C(=O)N1CCCC1c1ncc(-c2cc3sc(-c4ccc(-c5cnc([C@@H]6CCCN6C(=O)[C@H](NC(=O)OC)c6ccccc6)[nH]5)cc4)cc3s2)[nH]1)C(C)C (stereo partly drawn) [Compound A217]
EC50 [1]: < 0.1 nM | EC50 [3]: < 0.1 nM | CC50 at 72 h [4]: > 75000 nM | EC50 [5]: < 0.1 nM | EC50 [6]: < 0.1 nM

COC(=O)N[C@H](C(=O)N1CCC[C@H]1c1ncc(-c2ccc(-c3csc4c(-c5cnc([C@@H]6CCCN6C(=O)[C@H](NC(=O)OC)c6ccccc6)[nH]5)csc34)cc2)[nH]1)C(C)C [Compound A200, [(S)-1-((S)-2-{4-[4-(6-{2-[(S)-1-((R)-2-methoxycarbonylamino-2-phenyl-acetyl)-pyrrolidin-2-yl]-3H-imidazol-4-yl}-thieno[3,2-b]thiophen-3-yl)-phenyl]-1H-imidazol-2-yl}-pyrrolidine-1-carbonyl)-2-methyl-propyl]-carbamic acid methyl ester]
EC50 [1]: < 0.1 nM | EC50 [3]: < 0.1 nM | CC50 at 72 h [4]: > 75000 nM | EC50 [5]: < 0.1 nM | EC50 [6]: < 0.1 nM

COC(=O)N[C@H](C(=O)N1CCCC1c1nc(-c2cc3sc(-c4ccc(-c5cnc([C@@H]6CCCN6C(=O)[C@@H](c6ccccc6)N6CCCCC6)[nH]5)cc4)cc3o2)c[nH]1)C(C)C (stereo partly drawn) [Compound A212]
EC50 [1]: < 0.1 nM | EC50 [3]: < 0.1 nM | CC50 at 72 h [4]: 10000 to 75000 nM | EC50 [5]: < 0.1 nM | EC50 [6]: < 0.1 nM

COC(=O)N[C@H](C(=O)N1CCC[C@H]1c1nc2ccc(-c3cc4sc(-c5ccc(-c6c[nH]c([C@@H]7CCCN7C(=O)[C@H](NC(=O)OC)c7ccccc7)n6)cc5)cc4s3)cc2[nH]1)C(C)C [Compound A215, [(S)-1-((S)-2-{6-[5-(4-{(S)-2-[1-((R)-2-methoxycarbonylamino-2-phenyl-acetyl)-pyrrolidin-2-yl]-1H-imidazol-4-yl}-phenyl)-thieno[3,2-b]thiophen-2-yl)-1H-benzoimidazol-2-yl}-pyrrolidine-1-carbonyl)-2-methyl-propyl]-carbamic acid methyl ester]
EC50 [1]: < 0.1 nM | EC50 [3]: < 0.1 nM | CC50 at 72 h [4]: > 75000 nM | EC50 [5]: < 0.1 nM | EC50 [6]: < 0.1 nM

COC(=O)N[C@H](C(=O)N1CCC[C@H]1c1ncc(-c2ccc(-c3cc4sc(-c5cnc([C@@H]6CCCN6C(=O)[C@@H](NC(=O)OC)C(C)C)[nH]5)cc4s3)cc2)[nH]1)C(C)C [Compound A126, [(S)-1-((S)-2-{5-[4-(5-{2-[(S)-1-((S)-2-Methoxycarbonylamino-3-methyl-butyryl)-pyrrolidin-2-yl]-3H-imidazol-4-yl}-thieno[3,2-b]thiophen-2-yl)-phenyl]-1H-imidazol-2-yl}-pyrrolidine-1-carbonyl)-2-methyl-propyl]-carbamic acid methyl ester]
EC50 [1]: 0.1 to 1 nM | EC50 [3]: < 0.1 nM | CC50 at 72 h [4]: > 75000 nM | EC50 [5]: < 0.1 nM | EC50 [7]: < 1 nM | EC50 [6]: 1 to 10 nM | CC50 (GS4.1 cells): > 75000 nM

COC(=O)N[C@H](C(=O)N1CCC[C@H]1c1ncc(-c2csc3c(-c4ccc5[nH]c([C@@H]6CCCN6C(=O)[C@@H](NC(=O)OC)C(C)C)nc5c4)csc23)[nH]1)C(C)C [Compound A173, ((S)-1-{(S)-2-[6-(6-{(S)-2-[1-((S)-2-methoxycarbonylamino-3-methyl-butyryl)-pyrrolidin-2-yl]-1H-imidazol-4-yl}-thieno[3,2-b]thiophen-3-yl)-1H-benzoimidazol-2-yl]-pyrrolidine-1-carbonyl}-2-methyl-propyl)-carbamic acid methyl ester]
EC50 [1]: 1 to 10 nM | EC50 [3]: 1 to 10 nM | CC50 at 72 h [4]: 10000 to 75000 nM | EC50 [5]: < 0.1 nM | EC50 [6]: 1 to 10 nM

COC(=O)N[C@H](C(=O)N1CCCC1c1ncc(-c2csc3c(-c4ccc(-c5cnc(C6CCCN6C(=O)[C@H](NC(=O)OC)c6ccccc6)[nH]5)cc4)csc23)[nH]1)C(C)C (stereo partly drawn) [Compound A114]
EC50 [1]: < 0.1 nM | EC50 [2, 8]: 0.1 to 1 nM | EC50 ([2]; read-out: EC50 1a, genotype 1a): < 0.1 nM | EC50 [3]: < 0.1 nM | EC50 [5]: < 0.1 nM | EC50 [6]: < 0.1 nM
